Measurements: patent publication US20240228555A9, “ANTIMICROBIAL PEPTIDOMIMETICS” (Basilea Pharmaceutica International AG, Allschwil, priority 2020, published 2024)
Like-named read-outs stand apart in the source and are kept apart here. Where a SMILES comes first, the peptide text is derived from it.

Columns and labels:
[1] = tested on: human red blood cells (hRBC); format: cell-based; details: red cells of human, 1 h, 0.2 g/L
Procedure: (§1) Lyophilized peptides were weighed on a Microbalance (Mettler MT5) and dissolved in sterile water to a final concentration of 1 mg/mL. Stock solutions were kept at +4° C., light protected.
The peptides were tested for their hemolytic activity against human red blood cells (hRBC). Fresh hRBC were washed three times with phosphate buffered saline (PBS) and centrifuged for 5 min at 3000×g. Compounds (200 μg/mL) were incubated with 20% hRBC (v/v) for 1 h at 37° C. and shaking at 300 rpm. A value of 0% and 100% cell lyses, respectively, was determined by incubation of hRBC in the presence of PBS and 2.5% Triton X-100 in H2O, respectively. The samples were centrifuged, the supernatants were 8-fold diluted in PBS buffer and the optical densities (OD) were measured at 540 nm. The 100% lyses value (OD540H2O) gave an OD540 of approximately 0.5-1.0.
Percent hemolysis was calculated as follows: (OD540peptide/OD540H2O)×100%.

[2] = tested on: Klebsiella pneumoniae SSI3010
Procedure: as §1
(§2) Colonies of the microorganisms were diluted in saline (0.85%, NaCl) and adjusted using a McFarland reader (bioMérieux SA, Marcy-l'Etoile, France) to 0.5 McFarland standard. Subsequently, the bacterial suspension was diluted in Mueller-Hinton II (MHII, cation adjusted) broth to give approximately 5×10^5 colony forming units (CFU/mL).
(§3) 10^6 colony forming units (CFU)/mL. Aliquots (90 μl) of inoculate were added to 10 μl of water+P-80 (Polysorbate 80, 0.002% final concentration) containing the peptide in serial two-fold dilutions at 10 fold final concentration. The following microorganisms were used to determine antibiotic selectivity of the peptides: Escherichia coli ATCC 25922, Escherichia coli MCR-1 Af 45 and Klebsiella pneumoniae SSI3010.

[3] = tested on: Escherichia coli ATCC 25922
Procedure: as §1, §2, §3

[4] = tested on: Escherichia coli MCR-1 Af 45; details: Mueller-Hinton broth II, no visible growth after 18-20 hours at 35° C.
Procedure: as §1, §2, §3

[5] = Mueller-Hinton broth II, no visible growth after 18-20 hours at 35° C.

SMILES | Hemolysis at 0.2 g/L [1] | Klebsiella pneumoniae SSI3010 MIC ([2]; SSI3010) | Escherichia coli ATCC 25922 MIC ([3]; ATCC 25922) | Escherichia coli MCR-1 Af 45 MIC [4] | Klebsiella pneumoniae SSI3010 MIC [2, 5] | Escherichia coli ATCC 25922 MIC [3, 5]
CC[C@H](C)[C@H](NC(=O)[C@@H](NC(=O)[C@@H]1C[C@@H](N)CN1C(=O)[C@@H](N)C(C)C)[C@@H](C)CC)C(=O)N[C@@H](Cc1ccc(O)cc1)C(=O)N[C@@H]1C(=O)N[C@@H](CC(N)=O)C(=O)N[C@@H](CCCNC(=N)N)C(=O)N[C@@H](CCN)C(=O)N[C@@H]([C@@H](C)O)C(=O)N[C@H](CCN)C(=O)N[C@@H](CCCNC(N)=O)C(=O)N[C@H](C(=O)N[C@@H](CCN)C(=O)N[C@@H](CCCNC(=N)N)C(=O)N[C@@H](Cc2ccc(O)cc2)C(=O)O)CSSC1(C)C [Example 91, Val-Pro((4R)NH2)-Ile-Ile-Tyr-Pen-Asn-Arg-Dab-Thr-^DDab-Cit-Cys-Dab-Arg-Tyr] (HELM PEPTIDE1{V.[N[C@@H]1C[C@@H](C(=O)[*:2])N([*:1])C1].I.I.Y.[Pen].N.R.[Dab].T.[NCC[C@@H](N[*:1])C(=O)[*:2]].[Cit].C.[Dab].R.Y}$PEPTIDE1,PEPTIDE1,6:R3-13:R3$$$V2.0) | <1% | 0.25 µg/mL | 0.25 µg/mL | 0.03125 µg/mL | – | –
CC[C@H](C)[C@H](NC(=O)[C@@H](NC(=O)[C@@H]1C[C@@H](O)CN1C(=O)[C@@H](N)C(C)C)[C@@H](C)CC)C(=O)N[C@@H](Cc1ccc(O)cc1)C(=O)N[C@@H]1C(=O)N[C@@H](CC(N)=O)C(=O)N[C@@H](CCCNC(=N)N)C(=O)N[C@@H](CCCNC(N)=O)C(=O)N[C@@H]([C@@H](C)O)C(=O)N[C@H](CCN)C(=O)N[C@@H](CCCCN)C(=O)N[C@H](C(=O)N[C@@H](CCN)C(=O)N[C@@H](CCCNC(=N)N)C(=O)N[C@@H](Cc2ccc(O)cc2)C(=O)O)CSSC1(C)C [Example 124, Val-Hyp-Ile-Ile-Tyr-Pen-Asn-Arg-Cit-Thr-^DDab-Lys-Cys-Dab-Arg-Tyr] (HELM PEPTIDE1{V.[Hyp].I.I.Y.[Pen].N.R.[Cit].T.[NCC[C@@H](N[*:1])C(=O)[*:2]].K.C.[Dab].R.Y}$PEPTIDE1,PEPTIDE1,6:R3-13:R3$$$V2.0) | <1% | 0.5 µg/mL | 0.25 µg/mL | 0.25 µg/mL | – | –
CCCC[C@H](NC(=O)[C@H](CCCNC(=N)N)NC(=O)[C@H](CCN)NC(=O)[C@@H]1CSSC(C)(C)[C@H](NC(=O)[C@H](Cc2ccc(O)cc2)NC(=O)[C@@H](NC(=O)[C@@H](NC(=O)[C@@H]2C[C@@H](N)CN2C(=O)[C@@H](N)C(C)C)[C@@H](C)CC)[C@@H](C)CC)C(=O)N[C@@H](CC(N)=O)C(=O)N[C@@H](CCCNC(=N)N)C(=O)N[C@@H](CCCNC(=N)N)C(=O)N[C@@H]([C@@H](C)O)C(=O)N[C@H](CCN)C(=O)N[C@@H](CCCCN)C(=O)N1)C(=O)O [Example 2, Val-Pro((4R)NH2)-Ile-Ile-Tyr-Pen-Asn-Arg-Arg-Thr-^DDab-Lys-Cys-Dab-Arg-Nle] (HELM PEPTIDE1{V.[N[C@@H]1C[C@@H](C(=O)[*:2])N([*:1])C1].I.I.Y.[Pen].N.R.R.T.[NCC[C@@H](N[*:1])C(=O)[*:2]].K.C.[Dab].R.[Nle]}$PEPTIDE1,PEPTIDE1,6:R3-13:R3$$$V2.0) | 0% | – | – | – | 0.125 µg/mL | 0.0625 µg/mL
CC[C@H](C)[C@H](NC(=O)[C@@H](NC(=O)[C@@H]1CCCN1C(=O)[C@@H](N)C(C)C)[C@@H](C)CC)C(=O)N[C@@H](Cc1ccc(O)cc1)C(=O)N[C@@H]1C(=O)N[C@@H](CC(N)=O)C(=O)N[C@@H](CCCNC(=N)N)C(=O)N[C@@H](CCN)C(=O)N[C@@H]([C@@H](C)O)C(=O)N[C@H](CCN)C(=O)N[C@@H](CCCCN)C(=O)N[C@H](C(=O)N[C@@H](CCN)C(=O)N[C@@H](CCCNC(=N)N)C(=O)N[C@@H](Cc2ccc(O)cc2)C(=O)O)CSSC1(C)C [Example 7, Val-Pro-Ile-Ile-Tyr-Pen-Asn-Arg-Dab-Thr-^DDab-Lys-Cys-Dab-Arg-Tyr] (HELM PEPTIDE1{V.P.I.I.Y.[Pen].N.R.[Dab].T.[NCC[C@@H](N[*:1])C(=O)[*:2]].K.C.[Dab].R.Y}$PEPTIDE1,PEPTIDE1,6:R3-13:R3$$$V2.0) | 0% | – | – | – | 0.125 µg/mL | 0.0625 µg/mL
CC[C@H](C)[C@H](NC(=O)[C@@H](NC(=O)[C@@H]1C[C@@H](O)CN1C(=O)[C@@H](NC(=N)N)C(C)C)[C@@H](C)CC)C(=O)N[C@@H](Cc1ccc(O)cc1)C(=O)N[C@@H]1C(=O)N[C@@H](CC(N)=O)C(=O)N[C@@H](CCCNC(=N)N)C(=O)N[C@@H](CCN)C(=O)N[C@@H]([C@@H](C)O)C(=O)N[C@H](CCN)C(=O)N[C@@H](CCCCN)C(=O)N[C@H](C(=O)N[C@@H](CCN)C(=O)N[C@@H](CCCNC(=N)N)C(=O)N[C@@H](Cc2ccc(O)cc2)C(=O)O)CSSC1(C)C [Example 56, Gua-Val-Hyp-Ile-Ile-Tyr-Pen-Asn-Arg-Dab-Thr-^DDab-Lys-Cys-Dab-Arg-Tyr] (HELM PEPTIDE1{[CC(C)[C@H](NC(=N)N)C(=O)[*:2]].[Hyp].I.I.Y.[Pen].N.R.[Dab].T.[NCC[C@@H](N[*:1])C(=O)[*:2]].K.C.[Dab].R.Y}$PEPTIDE1,PEPTIDE1,6:R3-13:R3$$$V2.0) | 0% | – | – | – | 0.0625 µg/mL | 0.03125 µg/mL
CC[C@H](C)[C@H](NC(=O)[C@@H](NC(=O)[C@@H]1C[C@@H](O)CN1C(=O)[C@@H](N)C(C)C)[C@@H](C)CC)C(=O)N[C@@H](Cc1ccc(O)cc1)C(=O)N[C@@H]1C(=O)N[C@@H](CC(N)=O)C(=O)N[C@@H](CCCNC(=N)N)C(=O)N[C@@H](CCN)C(=O)N[C@@H]([C@@H](C)O)C(=O)N[C@H](CCN)C(=O)N[C@@H](CCCCN)C(=O)N[C@H](C(=O)N[C@@H](CCN)C(=O)N[C@@H](CCCNC(=N)N)C(=O)N[C@@H](Cc2ccc(O)cc2)C(=O)O)CSSC1(C)C [Example 14, Val-Hyp-Ile-Ile-Tyr-Pen-Asn-Arg-Dab-Thr-^DDab-Lys-Cys-Dab-Arg-Tyr] (HELM PEPTIDE1{V.[Hyp].I.I.Y.[Pen].N.R.[Dab].T.[NCC[C@@H](N[*:1])C(=O)[*:2]].K.C.[Dab].R.Y}$PEPTIDE1,PEPTIDE1,6:R3-13:R3$$$V2.0) | 0% | 0.25 µg/mL | – | – | – | 0.125 µg/mL
CC[C@H](C)[C@H](NC(=O)[C@@H](NC(=O)[C@@H]1CCCN1C(=O)[C@@H](NC(=N)N)C(C)C)[C@@H](C)CC)C(=O)N[C@@H](Cc1ccc(O)cc1)C(=O)N[C@@H]1C(=O)N[C@@H](CC(N)=O)C(=O)N[C@@H](CCCNC(=N)N)C(=O)N[C@@H](CCN)C(=O)N[C@@H]([C@@H](C)O)C(=O)N[C@H](CCN)C(=O)N[C@@H](CCCCN)C(=O)N[C@H](C(=O)N[C@@H](CCN)C(=O)N[C@@H](CCCNC(=N)N)C(=O)N[C@@H](Cc2ccc(O)cc2)C(=O)O)CSSC1(C)C [Example 54, Gua-Val-Pro-Ile-Ile-Tyr-Pen-Asn-Arg-Dab-Thr-^DDab-Lys-Cys-Dab-Arg-Tyr] (HELM PEPTIDE1{[CC(C)[C@H](NC(=N)N)C(=O)[*:2]].P.I.I.Y.[Pen].N.R.[Dab].T.[NCC[C@@H](N[*:1])C(=O)[*:2]].K.C.[Dab].R.Y}$PEPTIDE1,PEPTIDE1,6:R3-13:R3$$$V2.0) | 0% | – | – | – | 0.125 µg/mL | 0.125 µg/mL
